Measurements reported in US20140348819A1, “Methods of Treating Cancer” (Dana-Farber Cancer Institute, Inc., priority 2011, published 2014).
Several values for one entry are separate records, joined by “and”; a condition that tells them apart may be missing. Identical values can stand only once.

Tests used:
[1] = system: V600E BRAF melanoma cell lines; assay: HGF-induced / stromal resistance of melanoma cell lines to BRAF, MEK and AKT inhibitors and its reversal; format: cell-based, human; settings: V600E BRAF melanoma cell lines with recombinant HGF
DLD-1 cells = assay: Crizotinib synergistic effect with BRAFi in colorectal cells (FIG. 9); format: cell-based, human
From the text: The DLD-1 cells do harbor the BRAF activating mutation V600E but are not sensitive at all to BRAF inhibition. They actually grow faster under BRAFi.

[2] = system: BRAF V600E melanoma patients; assay: Clinical response of BRAF V600E melanoma patients to BRAFi or BRAFi + MEKi (Table 7); format: in vivo, human; settings: one line per patient
[3] = system: six V600E BRAF melanoma cell lines; assay: Screening of recombinant RTK ligands for ability to confer resistance to BRAFi (PLX4720) or MEKi (PD184352) (Table 4); format: cell-based, human; parameters: ability of recombinant RTK ligand to confer resistance / ability of recombinant RTK ligand to confer resistance (screening value): scale not given here
How it was run: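 Resistance to BRAFi (PLX4720) or MEKi (PD184352) was tested in six V600E BRAF melanoma lines given one of 22 recombinant RTK ligands. For a subset of RTKs, activation was checked by high-throughput tyrosine kinase phosphorylation profiling and western blot.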

pERK/pAKT = assay: High-throughput western analysis of pERK/pAKT re-activation by RTK ligands under BRAFi/MEKi; format: cell-based, human; settings: under BRAFi (PLX4720); after 1 hour of cytokine treatment; six V600E BRAF melanoma cell lines
Experimental: FIG. 23B is a western blot showing the activation of AKT (phosphorylated AKT, S473) after 1 hour and 24 hours after treatment with HGF, IGF-1 (IGF), and Insulin (INS) in the presence of BRAFi (PLX4720, 2 μM). FIG. 23C is a western blot showing the effect of HGF (25 ng/mL) on MAPK and PI3K/AKT pathway activation (pRAF1, pMEK, pERK, pAKT and pMET) in melanoma cell lines after 24 hours of treatment with 2 μM BRAFi (PLX4720) or 2 μM MEKi (PD184352).
To understand why, of all the RTKs tested, only HGF could induce such a unique primary resistance phenotype, a high-throughput western analysis was used to test the ability of all 22 RTK ligands to re-activate pERK/pAKT under BRAFi (PLX4720) treatment in six V600E BRAF melanoma cell lines. […] However, whereas the activation of both ERK and AKT by HGF under PLX4720 treatment was long lasting, the activation of either ERK or AKT by the above cytokines was only transient and thus could not confer resistance to the melanoma cell lines.

Q: For `C[C@@H](Oc1cc(-c2cnn(C3CCNCC3)c2)cnc1N)c1c(Cl)ccc(F)c1Cl` [Crizotinib], which “reversal of HGF-conferred BRAF/MEK inhibitor resistance” value [1] is on record?
A: directly reversed

Q: What about the “synergistic effect of Crizotinib” value (DLD-1 cells; DLD-1 cells, FIG. 9B) of the same molecule?
A: no substantial synergistic effect

Q: And the “sensitivity of colorectal cancer cell line to BRAFi on addition of Crizotinib” value (DLD-1 cells; cell line printed as DLD-1, BRAF V600E)?
A: restores full sensitivity

Q: Which results are given for `CC(C)(C)c1nc(-c2cccc(NS(=O)(=O)c3c(F)cccc3F)c2F)c(-c2ccnc(N)n2)s1` [GSK2118436]?
A: Response (Max) [2]: 9% and 40%; Time to progression (months) [2]: 3.5 months and 2.5 months

Q: What does the source list for `CCCS(=O)(=O)Nc1ccc(F)c(C(=O)c2c[nH]c3ncc(-c4ccc(Cl)cc4)cc23)c1F` [Vemurafenib]?
A: Response (Max) [2]: 90% and 72% (2×) and 50% and 100% and 25% and 23% and 22% and 10% and 0% (4×) and 54% and 34% and 20% and 56% and 27%; Response (Max), category [2]: POD; Time to progression (months) [2]: 7 months and 3.2 months and 5 months (2×) and 3 months and 12.4 months and 8 months and 5.4 months and 4.5 months and 8.5 months and 6.0 months and 7.3 months and 3.5 months and 6.5 months and 1.3 months

Q: What does the source list for EGF: RTK ligand (EGFR), cytokine tested?
A: ability of recombinant RTK ligand to confer resistance ([3]; A2058, PD184352 - 1 uM, ligand 0.4 ng/ml): 1.05; ability of recombinant RTK ligand to confer resistance ([3]; A2058, PD184352 - 1 uM, ligand 1.6 ng/ml): 1.04; ability of recombinant RTK ligand to confer resistance ([3]; A2058, PD184352 - 1 uM, ligand 6.25 ng/ml): 0.95; ability of recombinant RTK ligand to confer resistance ([3]; A2058, PD184352 - 1 uM, ligand 25 ng/ml): 0.96; ability of recombinant RTK ligand to confer resistance ([3]; A2058, PD184352 - 1 uM, ligand 100 ng/ml): 1.00; ability of recombinant RTK ligand to confer resistance ([3]; A2058, PLX4720 - 2 uM, ligand 0.4 ng/ml): 1.02; ability of recombinant RTK ligand to confer resistance ([3]; A2058, PLX4720 - 2 uM, ligand 1.6 ng/ml): 1.03; ability of recombinant RTK ligand to confer resistance ([3]; A2058, PLX4720 - 2 uM, ligand 6.25 ng/ml): 0.93; ability of recombinant RTK ligand to confer resistance ([3]; A2058, PLX4720 - 2 uM, ligand 25 ng/ml): 0.97; ability of recombinant RTK ligand to confer resistance ([3]; A2058, PLX4720 - 2 uM, ligand 100 ng/ml): 0.99; ability of recombinant RTK ligand to confer resistance ([3]; C32, PD184352 - 1 uM, ligand 0.4 ng/ml): 1.01; ability of recombinant RTK ligand to confer resistance ([3]; C32, PD184352 - 1 uM, ligand 1.6 ng/ml): 0.97; ability of recombinant RTK ligand to confer resistance ([3]; C32, PD184352 - 1 uM, ligand 6.25 ng/ml): 1.06; ability of recombinant RTK ligand to confer resistance ([3]; C32, PD184352 - 1 uM, ligand 25 ng/ml): 1.01; ability of recombinant RTK ligand to confer resistance ([3]; C32, PD184352 - 1 uM, ligand 100 ng/ml): 0.99; ability of recombinant RTK ligand to confer resistance ([3]; C32, PLX4720 - 2 uM, ligand 0.4 ng/ml): 1.06; ability of recombinant RTK ligand to confer resistance ([3]; C32, PLX4720 - 2 uM, ligand 1.6 ng/ml): 0.94; ability of recombinant RTK ligand to confer resistance ([3]; C32, PLX4720 - 2 uM, ligand 6.25 ng/ml): 1.03; ability of recombinant RTK ligand to confer resistance ([3]; C32, PLX4720 - 2 uM, ligand 25 ng/ml): 0.93; ability of recombinant RTK ligand to confer resistance ([3]; C32, PLX4720 - 2 uM, ligand 100 ng/ml): 0.99; ability of recombinant RTK ligand to confer resistance ([3]; Colo 829, PD184352 - 1 uM, ligand 0.4 ng/ml): 0.97; ability of recombinant RTK ligand to confer resistance ([3]; Colo 829, PD184352 - 1 uM, ligand 1.6 ng/ml): 0.96; ability of recombinant RTK ligand to confer resistance ([3]; Colo 829, PD184352 - 1 uM, ligand 6.25 ng/ml): 0.99; ability of recombinant RTK ligand to confer resistance ([3]; Colo 829, PD184352 - 1 uM, ligand 25 ng/ml): 0.94; ability of recombinant RTK ligand to confer resistance ([3]; Colo 829, PD184352 - 1 uM, ligand 100 ng/ml): 1.00; ability of recombinant RTK ligand to confer resistance ([3]; Colo 829, PLX4720 - 2 uM, ligand 0.4 ng/ml): 1.02; ability of recombinant RTK ligand to confer resistance ([3]; Colo 829, PLX4720 - 2 uM, ligand 1.6 ng/ml): 1.00; ability of recombinant RTK ligand to confer resistance ([3]; Colo 829, PLX4720 - 2 uM, ligand 6.25 ng/ml): 1.00; ability of recombinant RTK ligand to confer resistance ([3]; Colo 829, PLX4720 - 2 uM, ligand 25 ng/ml): 0.97; ability of recombinant RTK ligand to confer resistance ([3]; Colo 829, PLX4720 - 2 uM, ligand 100 ng/ml): 1.01; ability of recombinant RTK ligand to confer resistance ([3]; G-361, PD184352 - 1 uM, ligand 0.4 ng/ml): 1.01; ability of recombinant RTK ligand to confer resistance ([3]; G-361, PD184352 - 1 uM, ligand 1.6 ng/ml): 0.90; ability of recombinant RTK ligand to confer resistance ([3]; G-361, PD184352 - 1 uM, ligand 6.25 ng/ml): 0.97; ability of recombinant RTK ligand to confer resistance ([3]; G-361, PD184352 - 1 uM, ligand 25 ng/ml): 1.00; ability of recombinant RTK ligand to confer resistance ([3]; G-361, PD184352 - 1 uM, ligand 100 ng/ml): 0.96; ability of recombinant RTK ligand to confer resistance ([3]; G-361, PLX4720 - 2 uM, ligand 0.4 ng/ml): 0.98; ability of recombinant RTK ligand to confer resistance ([3]; G-361, PLX4720 - 2 uM, ligand 1.6 ng/ml): 0.90; ability of recombinant RTK ligand to confer resistance ([3]; G-361, PLX4720 - 2 uM, ligand 6.25 ng/ml): 0.94; ability of recombinant RTK ligand to confer resistance ([3]; G-361, PLX4720 - 2 uM, ligand 25 ng/ml): 0.99; ability of recombinant RTK ligand to confer resistance ([3]; G-361, PLX4720 - 2 uM, ligand 100 ng/ml): 0.93; ability of recombinant RTK ligand to confer resistance ([3]; SK-MEL-5, PD184352 - 1 uM, ligand 0.4 ng/ml): 0.99; ability of recombinant RTK ligand to confer resistance ([3]; SK-MEL-5, PD184352 - 1 uM, ligand 1.6 ng/ml): 1.04; ability of recombinant RTK ligand to confer resistance ([3]; SK-MEL-5, PD184352 - 1 uM, ligand 6.25 ng/ml): 1.08; ability of recombinant RTK ligand to confer resistance ([3]; SK-MEL-5, PD184352 - 1 uM, ligand 25 ng/ml): 1.11; ability of recombinant RTK ligand to confer resistance ([3]; SK-MEL-5, PD184352 - 1 uM, ligand 100 ng/ml): 1.01; ability of recombinant RTK ligand to confer resistance ([3]; SK-MEL-5, PLX4720 - 2 uM, ligand 0.4 ng/ml): 1.08; ability of recombinant RTK ligand to confer resistance ([3]; SK-MEL-5, PLX4720 - 2 uM, ligand 1.6 ng/ml): 1.15; ability of recombinant RTK ligand to confer resistance ([3]; SK-MEL-5, PLX4720 - 2 uM, ligand 6.25 ng/ml): 1.19; ability of recombinant RTK ligand to confer resistance ([3]; SK-MEL-5, PLX4720 - 2 uM, ligand 25 ng/ml): 1.22; ability of recombinant RTK ligand to confer resistance ([3]; SK-MEL-5, PLX4720 - 2 uM, ligand 100 ng/ml): 1.11; ability of recombinant RTK ligand to confer resistance ([3]; SK-MEL-28, PD184352 - 1 uM, ligand 0.4 ng/ml): 1.03; ability of recombinant RTK ligand to confer resistance ([3]; SK-MEL-28, PD184352 - 1 uM, ligand 1.6 ng/ml): 0.97; ability of recombinant RTK ligand to confer resistance ([3]; SK-MEL-28, PD184352 - 1 uM, ligand 6.25 ng/ml): 0.93; ability of recombinant RTK ligand to confer resistance ([3]; SK-MEL-28, PD184352 - 1 uM, ligand 25 ng/ml): 0.97; ability of recombinant RTK ligand to confer resistance ([3]; SK-MEL-28, PD184352 - 1 uM, ligand 100 ng/ml): 1.05; ability of recombinant RTK ligand to confer resistance ([3]; SK-MEL-28, PLX4720 - 2 uM, ligand 0.4 ng/ml): 1.00; ability of recombinant RTK ligand to confer resistance ([3]; SK-MEL-28, PLX4720 - 2 uM, ligand 1.6 ng/ml): 1.01; ability of recombinant RTK ligand to confer resistance ([3]; SK-MEL-28, PLX4720 - 2 uM, ligand 6.25 ng/ml): 0.97; ability of recombinant RTK ligand to confer resistance ([3]; SK-MEL-28, PLX4720 - 2 uM, ligand 25 ng/ml): 0.94; ability of recombinant RTK ligand to confer resistance ([3]; SK-MEL-28, PLX4720 - 2 uM, ligand 100 ng/ml): 1.03; re-activation of pERK/pAKT (pERK/pAKT): reactivate only ERK

Q: For “FGF-1: RTK ligand (FGFR), cytokine tested”, which “re-activation of pERK/pAKT” value (pERK/pAKT) is on record?
A: reactivate only ERK

Q: IGF-1: RTK ligand of IGF-1R was tested. Which “ability of RTK ligand to confer primary resistance” value ([3]; six V600E BRAF melanoma cell lines, BRAFi (PLX4720) or MEKi (PD184352)) did it give?
A: not shown to induce primary resistance

Q: And the “re-activation of pERK/pAKT” value (pERK/pAKT)?
A: only reactivate AKT
